Laboratory results: paper PMC11236979, “Iron-sulphur protein catalysed [4+2] cycloadditions in natural product biosynthesis” (Nature Communications, 2024)

Test system: T1, VtlG (P450)
T1 construct: recombinant from E. coli, purified; haem P450 monooxygenase
Experiment: UPLC product quantification at […] nm, Michaelis-Menten fit
Format: biochemical, Streptomyces spiroverticillatus
Conditions: mono-hydroxylation of 4 to 6; 5 nM VtlG, commercial spinach Fd 0.1 mg/mL, spinach FNR 1 unit/mL, 1 mM NADPH; 50 mM Tris-HCl pH 7.5, 30 °C

Km: 0.84 ± 0.26 µM
Compound: CC1=CC=CC=CC(C)CNC(=O)CC(=O)C=CC=CCC(O)CC(O)C=CC=C1 (stereo not shown) [compound 4]
